Values after ≈ are worked out from the molar mass of the structure shown. Numbered stars: 1 amine (or outer) side, 2 acyl side, 3 side chain; on linkers, the order of the positions; unused ones are H or OH. Bridge positions count the residues as written; N and C are the ends. Square brackets hold non-standard residues; d marks the D form. Side chains are listed from the residue outwards. Ends that are not written are not given here. Peptide text beside a SMILES is read from it. I, II: the chains in the order shown. X1 = O=C(CO[*:1])[*:2]; βAla = NCCC(=O)O
Tests used:
S. aureus = type: cell-based
Procedure: (§1) The materials for radial diffusion assay were prepared as following:
(§2) Trypticase soy broth (TSB): Full-strength broth contains 30 grams of TSB powder per liter of deionized water. It was autoclaved at 120° C. for 20 min and stored at room temperature.
(§3) Underlay gel: 50 mL of […] sodium phosphate buffer, 5 ml full-strength TSB and 5 g agarose were mixed in a beaker followed by addition of deionized water to 500 mL. The medium was autoclaved at 120° C. for 20 min. Before use, it was maintained at 42° C. to prevent from solidifying.
(§4) Overlay gel: One liter of overlay gel contains 60 g of TSB powder and 10 g of agarose. The medium was autoclaved at 120° C. for 20 min. To prevent from solidifying, it was maintained at 42° C. before use.
(§5) The following protocol was applied to the radial diffusion assay.
(§6) 1. A single colony was picked and transferred into a 5 ml tube containing 2.5 ml TSB. The culture was shaken at 37° C. for 18 h.
(§7) 2. 50 μl of the stationary phase culture was diluted to 2.5 mL of autoclaved TSB (1:50 dilution) and shaken at 37° C. for another 3 h.
(§8) 3. This subculture was centrifuged at 5000 rpm for 5 min and the supernatant was discarded. The residual cells were washed with cold sterile 10 mM phosphate buffer, pH 7.4 and the buffer was discarded after centrifuge. 5 ml of the same buffer was added to resuspend the cells and its bacteria concentration was determined by measuring its optical density at 620 nm.
(§9) 4. 10 ml of antoclaved, molten underlay gel agar was transferred to a 15-ml eppendorf tube and mixed with 4×10^6 CFU of bacteria by vortexing. The mixture was then poured into a petri dish and gelled in less than […]. Wells were punched against the gel using a Pasteur pippette.
(§10) 5. Peptides to be tested were serially diluted and 3.5 μl of each sample was added to the well. The plates were incubated at 37° C. for 3 h with gel-side up.
(§11) 6. Next, each underlay gel was covered with 10 ml of overlay gel. After the gel solidified, the plates were turned gel-side up and incubated at 37° C. for overnight.
(§12) 7. The following morning, all the plates were taken out and the zone diameters were measured with ruler. All the samples were tested in duplicates and the results were averaged. The final minimum inhibition concentration (MIC) was determined using excel.
(§13) There is a growing interest to develop peptide-based antibiotics (Annu Rev Immunol. 1995, 13, 61-92; J Intern Med. 2003, 254, 197-215; Cent Eur J Biol 2007, 2, 1-33; Int J Pept Res Ther. 2010, 16, 199-213) because, compared with conventional antibiotics, they are less likely to develop drug resistance and have fewer side effects (J Med Chem. 2015, 58, 6533-6548; Biochemistry-Us. 2000, 39, 7159-7169; Eur J Biochem. 2000, 267, 3289-3300; Nucleic Acids Res. 2012, 40, W199-204). To apply the presently disclosed enzymatic method in preparing dendrimeric antimicrobials, inventors synthesized two antimicrobials 12 (bivalent) and 13 (tetravalent) (MS shown in supporting information) which harbored a tetrapeptide RLYR (SEQ ID NO:121) as the antibacterial sequence (Eur J Biochem. 2002, 269, 923-932) by ligating N-acetylated thiodepsipeptide 10 Ac-RLYRN-thioglc-V (SEQ ID NO:120) with dendron core 2 and 6 respectively. The RLYR (SEQ ID NO:121) tetrapeptide contains a BHHB motif (B=basic, H=hydrophobic) which is commonly found in certain potent and broad-spectrum β-stranded antimicrobial peptides (BioDrugs. 2013, 27, 479-493) such as PG (protegrins) (Febs Lett. 1993, 327, 231-236) and RTD-1 (rhesus monkey theta defensin) (Science. 1999, 286, 498-502). This consensus motif with positive charged and hydrophobic residues was successfully used as a dendrimeric antimicrobial in 2002 (Eur J Biochem. 2002, 269, 923-932). Such short peptide-based dendrimeric antimicrobials are broad-spectrum antibiotics and kill bacterial cells through electrostatic and hydrophobic interactions with the negatively charged microbial cytoplasmic membranes (Biochemistry-Us. 2009, 48, 5642-5657). […]

E. coli = type: cell-based
Procedure: as §1, §2, §3, §4, §5, §6, §7, §8, §9, §10, §11, §12, §13

butelase 1 [1] = experiment: Butelase-mediated ligation kinetic characterization (Lineweaver-Burk); type: biochemical, Clitoria ternatea; details: 0.1 μM butelase 1, 1 mM GIGGIR, peptide 25 to 400 μM, pH 6.5, 42° C.
Procedure: Ligation assays were performed in 50-μl mixtures containing reaction buffer (1 mM EDTA, 20 mM phosphate buffer, pH 6.5), 0.1 […] butelase 1, 1 mM GIGGIR (SEQ ID NO:114) and varying concentrations of peptides 1-4 (25 to 400 μM). The reactions were performed in triplicate at 42° C. and quenched by adding 5 μl of 1 M HCl solution. The peptides were separated by using a reversed-phase C18 analytical column (150×2.1 mm, Vydac) with a linear gradient from 5% to 40% acetonitrile over 15 min on a Nexera UHPLC system (Shimadzu). The ligation velocities were calculated by converting the HPLC-peak areas of remained linear precursors or the ligated products into concentrations. The identity of each HPLC peak was analyzed by MALDI-TOF MS (ABI 4800 MALDI TOF/TOF). The kinetic parameters (kcat and Km) for each peptide were obtained by the LineweaverBurk plot.

butelase 1 [2] = experiment: Degradation time course of peptide in the presence of butelase 1 (HPLC); type: biochemical; details: Clitoria ternatea, butelase 1 in reaction buffer, presence of 0.0005 molar equivalent of butelase 1 (50 nM), peptide 100 μM, 42° C.
Procedure: (§14) FIG. 9. Degradation time course for thiodepsipeptide 1 and depsipeptide 2. Each peptide (100 μM) was incubated in the absence or presence of butelase 1 (50 nM) at 42° C. The peptide stability was monitored by HPLC every […].
(§15) To apply butelase 1 for N-terminal labeling of proteins, inventors used ubiquitin and green fluorescent protein (GFP) as examples (FIG. 4). Since butelase 1 prefers a hydrophobic amino acid (Ile/Leu/Val) or Cys at the P2″ position of an acceptor nucleophile, inventors prepared a recombinant ubiquitin protein (SEQ ID NO:122) with Gly-Ile at the N-terminus and His-tag at the C-terminus. It was also examined whether this method would work if His-tag was located at the N-terminus. Inventors thus prepared a recombinant GFP (SEQ ID NO:123) with an additional Ile inserted between the start codon and the N-terminal His-tag. Both proteins were labeled with the model thiodepsipeptide 1 in the presence of 0.001 molar equivalent of butelase 1. The labeling of proteins was slower as compared to the labeling of peptide 5, probably due to large differences in size between the model peptide and proteins. Furthermore, the N-terminal amino group of proteins may have a lower accessibility to butelase 1 as compared to peptides. […]

[3] = Degradation time course of peptide in reaction buffer without butelase 1 (HPLC); type: physicochemical; details: absence of butelase 1, peptide 100 μM, 42° C.
Procedure: as §14, §15

butelase 1 [4] = details: highest reported value; cited from earlier work

Molecule | MIC (S. aureus) | MIC (E. coli) | Km (butelase 1 [1]) | kcat (butelase 1 [1]) | further results
CC[C@H](C)[C@H](NC(=O)[C@@H](N)CCCNC(=N)N)C(=O)NCCC(=O)NCCCC[C@H](NC(=O)CCNC(=O)[C@@H](NC(=O)[C@@H](N)CCCNC(=N)N)[C@@H](C)CC)C(=O)N[C@@H](Cc1ccc(O)cc1)C(N)=O [Bivalent dendron core 2, (RIβA)2KY] (H-RI[βAla]K([βAla-Ile-Arg])Y-NH2; N-terminus assumed) | >150 µM | >150 µM |  |  | 
YKNGV (not fully specified (C-terminus)) [Peptide 4] |  |  | 880 ± 80 µM | 7.9 ± 0.72 s⁻¹ | 
CC[C@H](C)[C@H](NC(=O)[C@H](CCCNC(=N)N)NC(=O)[C@H](CC(N)=O)NC(=O)[C@H](CCCNC(=N)N)NC(=O)[C@H](Cc1ccc(O)cc1)NC(=O)[C@H](CC(C)C)NC(=O)[C@H](CCCNC(=N)N)NC(C)=O)C(=O)NCCC(=O)NCCCC[C@H](NC(=O)CCNC(=O)[C@@H](NC(=O)[C@H](CCCNC(=N)N)NC(=O)[C@H](CC(N)=O)NC(=O)[C@H](CCCNC(=N)N)NC(=O)[C@H](Cc1ccc(O)cc1)NC(=O)[C@H](CC(C)C)NC(=O)[C@H](CCCNC(=N)N)NC(C)=O)[C@@H](C)CC)C(=O)N[C@@H](Cc1ccc(O)cc1)C(N)=O [Dimer 12, (Ac-RLYRNRIβA)2KY] (I: Ac-RLYRNRI[βAla]KY-NH2 / II: Ac-RLYRNRI[βAla]; amide I:9-II:C) | 3.4 µM (≈ 8.43 µg/mL) | 18.3 µM (≈ 45.4 µg/mL) |  |  | 
YKNHV (not fully specified (C-terminus)) [Peptide 3] |  |  | 300 ± 10 µM | 4.1 ± 0.65 s⁻¹ | 
CC[C@H](C)[C@H](NC(=O)[C@@H](N)CCCNC(=N)N)C(=O)NCCC(=O)NCCCC[C@H](NC(=O)CCNC(=O)[C@@H](NC(=O)[C@@H](N)CCCNC(=N)N)[C@@H](C)CC)C(=O)NCCCC[C@H](NC(=O)[C@H](CCCCNC(=O)CCNC(=O)[C@@H](NC(=O)[C@@H](N)CCCNC(=N)N)[C@@H](C)CC)NC(=O)CCNC(=O)[C@@H](NC(=O)[C@@H](N)CCCNC(=N)N)[C@@H](C)CC)C(=O)N[C@@H](Cc1ccc(O)cc1)C(N)=O [Tetravalent dendron core 6, (RIβA)4K2KY] | >150 µM | >150 µM |  |  | 
CC(C)[C@H](NC(=O)CSC(=O)[C@H](CC(N)=O)NC(=O)[C@H](CCCCN)NC(=O)[C@@H](N)Cc1ccc(O)cc1)C(N)=O [Peptide 1, YKN(S)GV] |  |  | 2760 ± 300 µM | 56.5 ± 7.5 s⁻¹ | half-life at 100 μM (butelase 1 [2]): 40 min; half-life at 100 μM [3]: ~75 min
CC(C)[C@H](NC(=O)COC(=O)[C@H](CC(N)=O)NC(=O)[C@H](CCCCN)NC(=O)[C@@H](N)Cc1ccc(O)cc1)C(N)=O [Peptide 2, YKN(O)GV] (H-YKN[X1]V-NH2; N-terminus assumed) |  |  | 740 ± 10 µM | 12.4 ± 0.32 s⁻¹ | half-life at 100 μM (butelase 1 [2]): 37 min; half-life at 100 μM [3]: 45 min
CC(C)C[C@H](NC(=O)[C@@H](N)CCCNC(=N)N)C(=O)N[C@@H](Cc1ccc(O)cc1)C(=O)N[C@@H](CCCNC(=N)N)C(N)=O [Monomer 11, RLYR, reference compound] (H-RLYR-NH2; N-terminus assumed) | >300 µM | >300 µM |  |  | antimicrobial activity (in words) (S. aureus; S. aureus, high-salt condition (100 mM NaCl)): no appreciable activity; antimicrobial activity (in words) (E. coli; E. coli, high-salt condition (100 mM NaCl)): no appreciable activity
Butelase 1: Asn/Asp(Asx)-specific ligase isolated from the medicinal plant Clitoria ternatea (SEQ ID NO:1) (protein, listed as Clitoria ternatea) VEGTRWAVLVAGSKGYVNYRHQADVCHAYQILKKGGLKDENIIVFMYDDIAYNESNPHPGVIINHPYGSDVYKGVPKDYVGEDINPPNFYAVLLANKSALTGTGSGKVLDSGPNDHVFIYYTDHGGAGVLGMPSKPYIAASDLNDVLKKKHASGTYKSIVFYVESCESGSMFDGLLPEDHNIYVMGASDTGESSWVTYCPLQHPSPPPEYDVCVGDLFSVAWLEDCDVHNLQTETFQQQYEVVKNKTIVALIEDGTHVVQYGDVGLSKQTLFVYMGTDPANDNNTFTDKNSLGTPRKAVSQRDADLIHYWEKYRRAPEGSSRKAEAKKQLREVMAHRMHIDN |  |  |  |  | catalytic efficiency (butelase 1 [4]): up to 542,000 M^−1 s^−1
